Literature values, collected in patent EP4520317A1, “TRANSDERMAL THERAPEUTIC SYSTEM OF LUMATEPERONE” (Luye Pharma Switzerland AG, priority 2023, dated 2025).

Conditions: in vivo

In the case of CN1CCN2c3c(cccc31)[C@@H]1CN(CCCC(=O)c3ccc(F)cc3)CC[C@@H]12 [lumateperone, 1-(4-fluoro-phenyl)-4-((6bR, 10aS)-3-methyl-2,3,6b,9,10,10a-hexahydro-1H,7H-pyrido[3',4':4,5]pyrrolo[1,2,3-de]quinoxalin-8-yl)-butan-1-one], the oral bioavailability is given as “about 4.4%”.
